Experimental data reported in US12152016B2, “Aryl hydrocarbon receptor modulators and uses thereof” (Beth Israel Deaconess Medical Center, Inc., priority 2018, dated 2024).
“Also recorded” adds a separate entry of the source.

Key:
Assay type in all cases: cell-based
cyp1a1 = cyp1a1 expression by q-PCR in mouse Hepa-1c1c7 cells; conditions: mouse Hepa-1c1c7, 10 nM-10 μM, 8 hours
Protocol: RNA was extracted using TRIzol (Invitrogen) following manufacturer's instructions and 0.1 μg of RNA was converted to cDNA using a high capacity cDNA reverse transcription kit (Invitrogen). qPCR was performed on the Applied Biosystems 7900 using TaqMan® Universal PCR Master Mix (Life Technologies) with TaqMan® (Life Technologies) primers against cyp1a1 (Mm00487218_m1), AhR (Mm00478932_m1), IL-22 (Mm01226722_g1), Foxp3 (Mm00475162_m1), IL-10 (Mm01288386_m1), TNF-a (Mm00443258_m1), IFN-r (Mm01168134_m1). The fold increase from experimental groups to control was calculated using the delta-delta CT method with 18S (Mm00446186_m1) as an internal reference gene. In vitro and in vivo activation of the AhR singling pathway was confirmed by q-PCR characterization of cyp1a1. For in vitro induction, mouse Hepa-1c1c7 were cultured to confluence in 24 well plates in full DMEM followed by 24 hours incubation in tryptophan deficient media. Cells were treated with vehicle control (DMSO), ITE, compound 108, or compound 109 (10 nM-10 μM) for 8 hours in tryptophan deficient media. At the end of treatment, cells were lysed in TRIzol for RNA isolation. To monitor in vivo induction, (0.1-1000 μg) compound 109 was given per mouse via oral gavage in 100 μl of vehicle (1% HPMC, 1% polysorbate 80). After 12 hours, liver, colon, spleen and leukocytes from blood were collected and lysed in TRIzol (Invitrogen) for q-PCR analysis.

[1] = test system: AHR-dependent transcription of the CYP1A1 gene; experiment: CYP1A1 induction in mouse macrophages
Protocol: Mouse macrophages were also used to test AHR-dependent transcription of the CYP1A1 gene in vivo. Finally, the activity of exemplary compounds of Formula (I) described herein was tested in the human […] cell line U937. The U937 cell line is derived from a patient with diffuse histiocytic lymphoma. Tables 2-4 summarize structure-activity relationship data collected for exemplary, non-limiting compounds of Formula (I) described herein.

AhR [2] = molecular target: T1, AhR (Mus musculus, UniProt P30561); experiment: AhR nuclear translocation assay, mouse Hepa-1c1c7; conditions: mouse Hepa-1c1c7, 10 μM, 90 minutes
T1 construct: endogenous in cells; host or cells: Hepa-1c1c7 (mouse hepatoma cell line)
Protocol: (§1) Mouse Hepa-1c1c7 or human HepG2 cells were seeded in 8 well chamber slides followed by 24 hours incubation in tryptophan deficient media (HBSS with Ca^2+ and Mg^2+, 10% heat inactivated FBS, 1× non-essential amino acids, 1× sodium pyruvate, 4.5 g/L glucose). Cells were treated with vehicle control (DMSO) or 10 μM ITE, compound 108, or compound 109 for 90 minutes in tryptophan deficient media. Following treatment, cells were fixed in 4% formaldehyde and processed according to standard immunofluorescence staining protocol. Primary anti-AhR antibody was applied at 1:100 dilution (Enzo, BML-SA210) and Alexa488 conjugated secondary antibody was applied at 1:500 dilution (Cell Signaling, 4412S). Actin was stained using Alexa 568 conjugated Phalloidin (Fisher). Samples were mounted in anti-fade mounting medium supplemented with DAPI for nuclear staining and imaged with confocal microscopy (Leica SP5×MP, 63× oil lens).

AhR [3] = molecular target: T2, AhR (Homo sapiens, UniProt P35869); experiment: AhR nuclear translocation assay, human HepG2; conditions: human HepG2, 10 μM, 90 minutes
T2 construct: endogenous in cells; host or cells: HepG2 (human liver cancer cell line)
T2 sequence (P35869 11-848): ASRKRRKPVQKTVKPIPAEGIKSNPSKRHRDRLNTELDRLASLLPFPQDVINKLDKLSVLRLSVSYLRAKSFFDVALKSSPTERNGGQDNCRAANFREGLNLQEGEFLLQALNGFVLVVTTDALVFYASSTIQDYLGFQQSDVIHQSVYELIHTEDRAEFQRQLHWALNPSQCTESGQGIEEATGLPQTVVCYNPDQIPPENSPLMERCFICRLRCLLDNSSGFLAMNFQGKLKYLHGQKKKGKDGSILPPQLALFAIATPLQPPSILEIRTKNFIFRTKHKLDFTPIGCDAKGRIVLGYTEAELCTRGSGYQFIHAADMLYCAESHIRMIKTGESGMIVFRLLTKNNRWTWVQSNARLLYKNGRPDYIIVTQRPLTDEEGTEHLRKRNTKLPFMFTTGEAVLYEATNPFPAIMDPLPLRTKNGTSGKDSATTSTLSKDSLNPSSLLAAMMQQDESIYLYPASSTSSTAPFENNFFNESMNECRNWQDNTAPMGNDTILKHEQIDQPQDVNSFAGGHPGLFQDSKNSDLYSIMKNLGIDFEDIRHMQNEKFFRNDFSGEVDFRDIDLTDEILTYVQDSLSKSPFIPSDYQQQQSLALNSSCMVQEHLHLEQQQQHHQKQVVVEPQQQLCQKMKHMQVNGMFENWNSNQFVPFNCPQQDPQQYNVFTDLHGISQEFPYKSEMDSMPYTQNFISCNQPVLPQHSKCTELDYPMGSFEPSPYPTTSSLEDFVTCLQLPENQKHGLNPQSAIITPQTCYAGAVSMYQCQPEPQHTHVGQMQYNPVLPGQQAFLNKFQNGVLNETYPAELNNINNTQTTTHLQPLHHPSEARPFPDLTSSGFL
Protocol: as §1

T1 sequence (P30561 10-805 limits assumed): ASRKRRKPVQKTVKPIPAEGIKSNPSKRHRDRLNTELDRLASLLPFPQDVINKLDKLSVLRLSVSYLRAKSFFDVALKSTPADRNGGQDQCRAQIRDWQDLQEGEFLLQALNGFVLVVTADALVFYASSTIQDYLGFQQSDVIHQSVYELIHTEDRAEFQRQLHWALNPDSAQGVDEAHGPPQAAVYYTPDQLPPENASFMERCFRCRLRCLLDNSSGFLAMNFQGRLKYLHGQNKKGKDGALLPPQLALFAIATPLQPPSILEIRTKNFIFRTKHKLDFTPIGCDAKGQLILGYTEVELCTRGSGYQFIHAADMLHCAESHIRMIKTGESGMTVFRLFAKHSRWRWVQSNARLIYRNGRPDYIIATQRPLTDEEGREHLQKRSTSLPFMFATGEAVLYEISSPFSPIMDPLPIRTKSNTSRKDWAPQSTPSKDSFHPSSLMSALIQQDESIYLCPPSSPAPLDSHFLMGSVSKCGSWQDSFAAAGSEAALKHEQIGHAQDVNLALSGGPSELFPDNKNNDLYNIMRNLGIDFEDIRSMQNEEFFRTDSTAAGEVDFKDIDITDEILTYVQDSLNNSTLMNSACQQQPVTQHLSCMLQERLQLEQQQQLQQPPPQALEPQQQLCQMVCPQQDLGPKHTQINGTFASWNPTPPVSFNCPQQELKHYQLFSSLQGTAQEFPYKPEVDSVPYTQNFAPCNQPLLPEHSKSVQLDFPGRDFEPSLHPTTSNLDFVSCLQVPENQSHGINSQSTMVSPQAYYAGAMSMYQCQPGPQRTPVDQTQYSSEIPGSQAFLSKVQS
T1 sequence (P53762 whole entry partner): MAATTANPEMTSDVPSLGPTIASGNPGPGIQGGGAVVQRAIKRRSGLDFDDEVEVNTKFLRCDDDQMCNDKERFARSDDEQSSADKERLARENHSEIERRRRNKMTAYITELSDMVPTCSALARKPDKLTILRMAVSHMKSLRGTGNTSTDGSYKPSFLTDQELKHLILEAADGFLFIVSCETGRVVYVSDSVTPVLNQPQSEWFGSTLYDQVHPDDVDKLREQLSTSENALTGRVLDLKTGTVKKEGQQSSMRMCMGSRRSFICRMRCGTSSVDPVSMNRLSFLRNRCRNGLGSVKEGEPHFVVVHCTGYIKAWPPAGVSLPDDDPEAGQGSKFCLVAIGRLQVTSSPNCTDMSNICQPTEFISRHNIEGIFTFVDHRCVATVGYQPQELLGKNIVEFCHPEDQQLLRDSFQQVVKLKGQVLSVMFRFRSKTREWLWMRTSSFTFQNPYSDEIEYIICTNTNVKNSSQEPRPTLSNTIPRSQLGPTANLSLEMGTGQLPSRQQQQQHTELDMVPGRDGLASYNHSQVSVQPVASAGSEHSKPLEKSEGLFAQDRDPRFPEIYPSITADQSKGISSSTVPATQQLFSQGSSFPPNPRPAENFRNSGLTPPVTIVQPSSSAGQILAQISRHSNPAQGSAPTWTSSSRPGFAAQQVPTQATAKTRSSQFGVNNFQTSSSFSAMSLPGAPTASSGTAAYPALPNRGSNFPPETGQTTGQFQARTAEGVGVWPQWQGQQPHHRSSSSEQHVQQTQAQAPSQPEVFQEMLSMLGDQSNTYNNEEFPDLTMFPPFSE

In the case of `N#Cc1cccc(C(=O)c2c[nH]c3ccccc23)n1` [Compound 108, 6-(1H-indole-3-carbonyl)pyridine-2-carbonitrile], the “cyp1a1 expression (qPCR)” value (cyp1a1) is reported as “induced AhR-dependent cyp1a1 expression; also recorded: dose dependent induction of cyp1a1 expression”, the “CYP1A1 induction (% of ITE ± SEM)” value ([1]; 50 nM) is reported as 33 ± 3 % of ITE and the “CYP1A1 induction (% of ITE ± SEM)” value ([1]; 5 μM) is reported as 94 ± 24 % of ITE. For the same compound, the AhR nuclear translocation (AhR [2]) was “localized in the nucleus; also recorded: rapid nuclear enrichment of AhR” and the AhR nuclear translocation (AhR [3]) was “localized in the nucleus; also recorded: rapid nuclear enrichment of AhR”.
